Earlier results on one substance are cited in US20030211175A1, “Methods and compositions for dietary supplements” (priority 2002, published 2003).

On to Chromium picolinate, for which the “reducing an elevated blood glucose level” value (human) is on record as “moderately effective”. Further, where the note is “in vivo”, the toxicity entry is “considerable toxicity”.
